Source: patent publication US20140243401A1, “METHODS OF SCREENING COMPOUNDS THAT ARE CYTOTOXIC TO TUMOR CELLS AND METHODS OF TREATING TUMOR CELLS USING SUCH COMPOUND” (The Johns Hopkins University, priority 2010, published 2014)
Read-outs that look alike come from different tables or passages of the source.

Key:
Type I cytosolic FAS = target: T1, Type I cytosolic FAS (Homo sapiens, UniProt P49327); assay: Type I cytosolic FAS activity, [14C]malonyl-CoA incorporation into lipid in MCF7 cell lysates; format: biochemical; details: MCF7 human breast cancer cell lysates, read-out: IC50, inhibition of Type I cytosolic FAS activity
T1 construct: incorporation into lipid in MCF7 human breast cancer cell lysates; endogenous in cells; host or cells: MCF7 human breast cancer cell lysate
Source text: The invention provides for methods that involve determining and/or measuring Type I and mmFAS activity. Methods of measuring Type I FAS activity are known in the art. (See, e.g., U.S. Pat. Nos. 5,759,837 and 5,981,575, which are hereby incorporated by reference in their entirety). For example, Type I FAS activity may be measured in whole cells by monitoring the incorporation of [14C]acetate into total lipids. In cell lysates, Type I FAS activity may be measured by monitoring the incorporation of [14C] from malonyl CoA into total lipids. Alternatively, Type I FAS activity may be determined using purified enzyme with acetyl CoA and malonyl CoA as substrates by measuring incorporation of radioactivity or measuring oxidation of NADPH spectrophotometrically. To test the inhibition of Type I FAS activity, a test compound is added to the reaction mixture.

[1] = test system: AMP-activated protein kinase (AMPK); assay: AMPK activation (pAMPK Western blot) in SKOV3 cells; format: cell-based, human; details: over time, FIG. 8
Source text: Another indicator of cellular energy status and metabolic compromise is the activity on the cellular kinase AMP-activated protein kinase (AMPK). AMPK is a master energy sensor. AMPK regulates both enzyme activities and gene expression. When energy levels are low, and ATP levels fall with the concomitant rise in […] levels, AMPK is activated and phosphorylated. When energy levels are surfeit, AMPK is inactivated and not phosphorylated. Thus, AMPK controls metabolic fluxes between anabolic and catabolic states.
We determined the ability of C31 or Riv7d to cause the activation of AMPK in a variety of cancer cells in vitro. SKOV3 cells were cultured in DMEM containing 5 mM glucose medium with 10% fetal calf serum, 0.01 mg/ml insulin and 1% penicillin/streptomycin. Antibodies to pAMPK and AMPK were obtained from Cell Signaling. Cells were grown in 6-well plates at 5×10^4 per well and incubated overnight. Following drug treatment, the cells were harvested in Laemmli buffer and boiled for 5 minutes. Proteins were separated on a 4-15% SDS-PAGE gradient gel and transferred to a nitrocellulose membrane.

purified rat liver FAS = target: T2, purified rat liver FAS (Rattus norvegicus, UniProt P12785); assay: purified rat Type I FAS, spectrophotometric NADPH oxidation; format: biochemical
T2 construct: Highly purified rat FAS was obtained from starved and induced Sprague-Dawley rat livers; from tissue; host or cells: liver of starved and induced Sprague-Dawley rats
Protocol: Highly purified rat FAS was obtained from starved and induced Sprague-Dawley rat livers by slight modification of a published procedure.xx [Abraham, S.; Smith, S. Methods Enzymol. 1975, 35B, 65-73.]. Enzyme activity was assayed spectrophotometrically by measuring the decrease in extinction at 340 nm that accompanies the oxidation of NADPH during the overall reaction. The enzyme reaction mixture contained 100 mM KH2PO4 (pH 6.6), 1 mM EDTA, 1 mM dithiothreitol (DTT), 0.10 mM acetylCoA, 0.20 mM NADPH, ˜3 μg FAS and escalating concentrations of inhibitor to be tested were combined in a final volume of 1 mL and assayed at 37° C. for 5 min to monitor malonylCoA-independent oxidation of NADPH. FAS activity was then initiated by addition of 0.2 mM malonyl-CoA.

MCF7 cells = assay: JC-1 staining, mitochondrial membrane potential in MCF7 cells; format: cell-based, human
Source text: JC-1 staining is an indicator of mitochondrial membrane potential; with this assay, mitochondria within cells stained with this fluorescent dye emit a wavelength in the red spectrum when mitochondrial membrane potential is intact. When mitochondria are depolarized, the wavelength of the spectrum emitted changes to green. Therefore, the ratio of red/green fluorescence will give an indication of the intactness of the membrane potential of mitochondria, and thus mitochondrial function.
MCF7 cells were cultured in 24-well plates at 1×10^4 per well and incubated overnight. Following drug inhibition the medium was removed and 1 μg/ml JC-1 (Molecular Probes) in DPBS was added to the cells. Plates were incubated for 30 min at 37° C., and washed two times with DPBS. Fluorescence from each well was measured at 530 nm/590 nm (excitation/emission) and by 485 nm/535 nm (excitation/emission) separately using PerkinElmer Victor 1420. The ratio of red to green fluorescence is a measure of mitochondrial membrane potential and thus mitochondrial function directly.
Mitochondrial membrane polarization was monitored using the procedure described above. Cells were cultured in 24-well plates at 1×10^4 per well and incubated overnight. […] Fluorescence from each well was measured at 530 nm/590 nm (excitation/emission) and by 485 nm/535 nm (excitation/emission) separately using PerkinElmer Victor 1420.

MCF 7 cells = assay: clonogenic assay; format: cell-based, human; details: MCF 7, FIG. 4(C)
Protocol: In this assay, the effectiveness of specific agents on cell survival and proliferation can be measured in a functional sense. After treatment, surviving cells are re-plated to determine whether the surviving cells are still capable of proliferation. Therefore, this if a more direct measure of cell survival and function.
4×10^5 cells were plated in 25 cm^2 flasks. After overnight culture, cells are treated with compounds for specified times and concentrations. After drug treatment, cells are trypsinized and equal numbers of treated and control cells are plated in triplicate in 60-mm dishes at a density of 500 cells/dish in medium without drugs. Clones are stained and counted after 7-10 days
MCF 7 cells were treated with vehicle, C31 at increasing doses, or Riv7d.

T2 sequence (P12785 whole entry): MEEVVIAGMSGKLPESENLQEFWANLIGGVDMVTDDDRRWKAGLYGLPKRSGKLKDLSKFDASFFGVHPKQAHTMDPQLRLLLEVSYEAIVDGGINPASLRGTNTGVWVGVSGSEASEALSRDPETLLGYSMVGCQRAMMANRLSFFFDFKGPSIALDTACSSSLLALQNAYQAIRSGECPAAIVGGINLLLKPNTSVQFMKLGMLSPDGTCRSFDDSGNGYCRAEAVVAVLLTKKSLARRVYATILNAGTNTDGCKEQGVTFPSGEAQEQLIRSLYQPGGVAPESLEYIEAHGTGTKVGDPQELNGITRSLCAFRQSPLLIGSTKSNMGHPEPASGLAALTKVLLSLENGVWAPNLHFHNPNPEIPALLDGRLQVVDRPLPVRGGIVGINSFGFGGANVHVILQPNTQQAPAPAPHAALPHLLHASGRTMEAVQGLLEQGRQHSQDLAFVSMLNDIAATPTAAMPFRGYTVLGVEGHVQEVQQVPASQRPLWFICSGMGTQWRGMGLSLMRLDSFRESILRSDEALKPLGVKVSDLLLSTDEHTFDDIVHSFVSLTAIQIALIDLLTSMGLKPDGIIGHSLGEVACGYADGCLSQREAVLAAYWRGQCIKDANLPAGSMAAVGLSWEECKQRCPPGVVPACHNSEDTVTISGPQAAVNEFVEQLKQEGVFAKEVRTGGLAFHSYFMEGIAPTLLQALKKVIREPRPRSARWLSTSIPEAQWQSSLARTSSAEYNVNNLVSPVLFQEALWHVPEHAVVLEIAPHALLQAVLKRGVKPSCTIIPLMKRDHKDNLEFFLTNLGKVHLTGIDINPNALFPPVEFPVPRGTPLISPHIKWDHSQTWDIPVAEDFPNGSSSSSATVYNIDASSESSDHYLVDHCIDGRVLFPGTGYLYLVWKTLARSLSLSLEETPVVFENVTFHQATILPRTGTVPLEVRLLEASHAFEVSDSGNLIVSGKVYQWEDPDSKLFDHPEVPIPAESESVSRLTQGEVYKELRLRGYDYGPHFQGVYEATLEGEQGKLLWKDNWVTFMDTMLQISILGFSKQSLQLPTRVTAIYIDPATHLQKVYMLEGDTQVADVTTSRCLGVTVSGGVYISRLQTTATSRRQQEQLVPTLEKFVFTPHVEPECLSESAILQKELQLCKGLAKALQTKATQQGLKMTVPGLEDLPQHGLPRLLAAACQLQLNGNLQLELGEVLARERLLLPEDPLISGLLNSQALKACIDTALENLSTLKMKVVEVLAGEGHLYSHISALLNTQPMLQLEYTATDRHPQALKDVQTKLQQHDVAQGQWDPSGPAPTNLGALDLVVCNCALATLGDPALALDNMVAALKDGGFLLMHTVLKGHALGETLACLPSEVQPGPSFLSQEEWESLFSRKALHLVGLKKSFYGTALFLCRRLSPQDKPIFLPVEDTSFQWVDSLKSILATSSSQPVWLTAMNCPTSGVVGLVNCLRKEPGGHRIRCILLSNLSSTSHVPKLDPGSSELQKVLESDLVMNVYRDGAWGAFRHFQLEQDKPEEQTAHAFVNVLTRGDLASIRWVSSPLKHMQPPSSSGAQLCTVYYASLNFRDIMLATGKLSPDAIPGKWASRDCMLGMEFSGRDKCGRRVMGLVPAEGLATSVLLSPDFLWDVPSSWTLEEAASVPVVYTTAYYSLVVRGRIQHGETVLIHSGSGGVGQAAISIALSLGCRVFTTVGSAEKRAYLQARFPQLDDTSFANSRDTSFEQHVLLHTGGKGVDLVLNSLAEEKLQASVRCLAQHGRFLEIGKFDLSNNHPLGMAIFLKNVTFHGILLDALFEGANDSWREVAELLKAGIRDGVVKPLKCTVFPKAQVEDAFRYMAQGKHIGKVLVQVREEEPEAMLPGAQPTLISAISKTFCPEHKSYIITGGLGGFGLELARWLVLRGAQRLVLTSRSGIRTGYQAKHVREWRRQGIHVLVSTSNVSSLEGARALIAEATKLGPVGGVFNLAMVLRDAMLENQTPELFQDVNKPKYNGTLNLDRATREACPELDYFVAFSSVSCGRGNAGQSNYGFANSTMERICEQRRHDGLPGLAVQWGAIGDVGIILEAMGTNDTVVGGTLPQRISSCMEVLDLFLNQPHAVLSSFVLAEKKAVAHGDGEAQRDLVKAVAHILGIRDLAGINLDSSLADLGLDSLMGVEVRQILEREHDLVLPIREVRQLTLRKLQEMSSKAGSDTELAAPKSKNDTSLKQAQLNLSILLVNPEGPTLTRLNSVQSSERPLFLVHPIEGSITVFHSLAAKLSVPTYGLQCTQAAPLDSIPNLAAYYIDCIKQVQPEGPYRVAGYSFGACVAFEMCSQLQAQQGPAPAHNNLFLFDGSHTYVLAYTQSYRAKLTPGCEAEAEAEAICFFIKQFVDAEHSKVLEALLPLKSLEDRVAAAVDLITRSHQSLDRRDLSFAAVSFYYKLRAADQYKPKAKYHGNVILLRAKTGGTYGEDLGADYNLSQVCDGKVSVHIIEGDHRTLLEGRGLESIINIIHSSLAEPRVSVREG
T1 sequence (P49327 whole entry): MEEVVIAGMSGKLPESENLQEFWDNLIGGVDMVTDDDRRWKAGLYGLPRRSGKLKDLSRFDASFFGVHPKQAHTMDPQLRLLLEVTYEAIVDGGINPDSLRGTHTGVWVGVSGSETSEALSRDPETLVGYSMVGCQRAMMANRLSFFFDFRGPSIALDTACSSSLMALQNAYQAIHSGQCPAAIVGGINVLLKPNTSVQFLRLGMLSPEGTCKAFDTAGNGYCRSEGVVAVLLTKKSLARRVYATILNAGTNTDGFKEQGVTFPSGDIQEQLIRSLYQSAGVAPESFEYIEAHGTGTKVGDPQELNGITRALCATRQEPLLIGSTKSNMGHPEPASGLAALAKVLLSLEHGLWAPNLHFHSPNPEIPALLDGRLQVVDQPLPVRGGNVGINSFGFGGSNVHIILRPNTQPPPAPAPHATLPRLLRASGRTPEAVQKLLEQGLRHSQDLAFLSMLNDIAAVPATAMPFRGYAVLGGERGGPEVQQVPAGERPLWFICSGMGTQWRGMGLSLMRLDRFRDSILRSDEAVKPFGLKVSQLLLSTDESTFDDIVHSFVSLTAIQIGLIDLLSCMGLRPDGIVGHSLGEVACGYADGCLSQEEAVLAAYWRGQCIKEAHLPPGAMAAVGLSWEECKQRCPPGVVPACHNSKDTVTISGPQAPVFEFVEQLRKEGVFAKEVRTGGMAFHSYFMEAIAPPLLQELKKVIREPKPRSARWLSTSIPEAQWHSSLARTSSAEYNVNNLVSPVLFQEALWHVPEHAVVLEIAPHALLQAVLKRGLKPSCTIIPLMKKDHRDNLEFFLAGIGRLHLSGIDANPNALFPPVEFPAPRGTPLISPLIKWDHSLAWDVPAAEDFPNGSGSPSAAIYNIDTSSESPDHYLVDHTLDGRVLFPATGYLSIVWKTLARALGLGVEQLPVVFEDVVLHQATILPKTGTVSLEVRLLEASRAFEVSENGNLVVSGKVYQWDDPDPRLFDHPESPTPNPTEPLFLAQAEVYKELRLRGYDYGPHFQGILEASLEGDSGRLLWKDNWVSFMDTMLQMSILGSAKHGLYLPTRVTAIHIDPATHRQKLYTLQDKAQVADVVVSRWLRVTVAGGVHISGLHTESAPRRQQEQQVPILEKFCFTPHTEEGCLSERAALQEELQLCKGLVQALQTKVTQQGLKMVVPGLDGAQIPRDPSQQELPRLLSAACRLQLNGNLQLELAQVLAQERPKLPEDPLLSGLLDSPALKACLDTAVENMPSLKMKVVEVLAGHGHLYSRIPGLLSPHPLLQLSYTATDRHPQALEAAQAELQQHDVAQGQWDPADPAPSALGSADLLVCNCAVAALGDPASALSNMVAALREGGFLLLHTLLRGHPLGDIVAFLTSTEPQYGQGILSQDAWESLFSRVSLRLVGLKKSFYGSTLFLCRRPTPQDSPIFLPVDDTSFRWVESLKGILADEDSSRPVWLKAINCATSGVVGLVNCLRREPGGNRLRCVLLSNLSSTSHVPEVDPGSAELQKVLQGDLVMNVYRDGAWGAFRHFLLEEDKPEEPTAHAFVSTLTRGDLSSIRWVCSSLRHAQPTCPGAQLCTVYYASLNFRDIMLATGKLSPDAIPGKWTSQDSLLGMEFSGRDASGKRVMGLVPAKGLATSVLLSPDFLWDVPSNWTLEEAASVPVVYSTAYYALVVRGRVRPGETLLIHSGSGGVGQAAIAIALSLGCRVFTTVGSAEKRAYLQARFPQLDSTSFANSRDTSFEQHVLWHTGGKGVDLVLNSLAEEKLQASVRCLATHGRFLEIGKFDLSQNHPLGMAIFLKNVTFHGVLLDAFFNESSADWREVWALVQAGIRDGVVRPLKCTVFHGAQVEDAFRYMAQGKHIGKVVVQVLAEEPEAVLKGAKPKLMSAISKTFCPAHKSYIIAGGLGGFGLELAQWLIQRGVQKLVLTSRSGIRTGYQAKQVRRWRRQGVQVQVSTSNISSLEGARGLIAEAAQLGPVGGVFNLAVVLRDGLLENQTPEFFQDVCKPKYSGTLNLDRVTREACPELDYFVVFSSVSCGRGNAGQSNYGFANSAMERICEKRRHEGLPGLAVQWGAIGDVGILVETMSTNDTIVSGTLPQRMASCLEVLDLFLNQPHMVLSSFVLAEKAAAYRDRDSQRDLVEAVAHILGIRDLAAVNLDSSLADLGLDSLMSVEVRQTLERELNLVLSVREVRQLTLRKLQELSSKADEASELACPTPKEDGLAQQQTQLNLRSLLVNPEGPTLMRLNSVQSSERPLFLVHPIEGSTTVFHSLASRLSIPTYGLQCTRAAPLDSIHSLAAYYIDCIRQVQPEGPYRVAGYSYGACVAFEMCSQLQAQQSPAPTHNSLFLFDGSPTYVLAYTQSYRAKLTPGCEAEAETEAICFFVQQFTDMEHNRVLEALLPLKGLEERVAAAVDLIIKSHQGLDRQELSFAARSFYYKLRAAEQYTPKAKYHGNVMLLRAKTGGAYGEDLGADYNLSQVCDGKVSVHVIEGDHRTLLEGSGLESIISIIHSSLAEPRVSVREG

`CCCCCCCCC1(C)SC(=O)C=C1OCC(=O)Nc1ccc(Cl)cc1` (stereo not shown) [Compound C31] was tested, and the IC50 (Type I cytosolic FAS) was 17.8 µM, the “AMPK activation (pAMPK levels, Western blot)” value [1] was “rapid activation of AMPK” and the IC50 (purified rat liver FAS) was 42 µM. The IC50 (purified rat liver FAS; approximate) was about 41 µM, the “mitochondrial membrane potential (JC-1 staining)” value (MCF7 cells; MCF7, standard conditions, FIGS. 6, 7) was “rapid and profound effect on altering mitochondrial membrane potential” and the “mitochondrial membrane polarization (JC-1 staining)” value (MCF7 cells; MCF7, varying glucose and oxygen, FIG. 11) was “reductions in mitochondrial membrane polarization”. For the same compound, the “viability in clonogenic assay” value (MCF 7 cells) was “dose-dependent decrease in viability”.
